For one data set, the target named is T1, Toll-like receptor 7 (Homo sapiens, UniProt Q9NYK1).
T1 sequence (Q9NYK1 whole entry): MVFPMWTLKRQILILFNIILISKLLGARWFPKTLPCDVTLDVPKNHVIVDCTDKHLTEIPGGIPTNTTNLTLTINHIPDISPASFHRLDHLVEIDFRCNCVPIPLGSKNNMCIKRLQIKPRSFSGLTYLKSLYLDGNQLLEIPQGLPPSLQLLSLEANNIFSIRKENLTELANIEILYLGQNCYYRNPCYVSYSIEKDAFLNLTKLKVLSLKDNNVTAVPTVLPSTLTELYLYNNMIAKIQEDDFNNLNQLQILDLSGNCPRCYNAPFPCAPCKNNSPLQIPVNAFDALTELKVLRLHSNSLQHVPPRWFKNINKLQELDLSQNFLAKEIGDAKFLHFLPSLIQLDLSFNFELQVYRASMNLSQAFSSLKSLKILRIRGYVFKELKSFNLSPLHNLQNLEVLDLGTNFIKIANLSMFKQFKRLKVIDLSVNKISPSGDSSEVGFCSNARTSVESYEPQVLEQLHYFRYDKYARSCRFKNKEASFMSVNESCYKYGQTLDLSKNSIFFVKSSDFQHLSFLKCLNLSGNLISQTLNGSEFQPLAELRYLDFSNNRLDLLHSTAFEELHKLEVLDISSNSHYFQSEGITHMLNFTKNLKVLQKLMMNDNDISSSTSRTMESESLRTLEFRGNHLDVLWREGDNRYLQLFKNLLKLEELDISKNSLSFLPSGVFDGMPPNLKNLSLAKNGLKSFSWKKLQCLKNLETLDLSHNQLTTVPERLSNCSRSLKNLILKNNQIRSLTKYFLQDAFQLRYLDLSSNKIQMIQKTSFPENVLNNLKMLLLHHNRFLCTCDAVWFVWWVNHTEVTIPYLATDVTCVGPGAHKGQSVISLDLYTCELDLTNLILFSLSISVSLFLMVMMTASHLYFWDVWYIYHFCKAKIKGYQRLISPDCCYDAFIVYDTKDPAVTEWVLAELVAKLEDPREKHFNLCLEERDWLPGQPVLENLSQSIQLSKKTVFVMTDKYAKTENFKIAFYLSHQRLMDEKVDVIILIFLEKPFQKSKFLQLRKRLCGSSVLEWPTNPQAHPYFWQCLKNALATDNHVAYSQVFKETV
Briefly: Antagonist activity at gardiquimod stimulated TRL7 in human whole blood assessed as inhibition of IL-6 production by ELISA analysis. The format is tissue-based. For orientation: ELISA stands for enzyme-linked immunosorbent assay.

The nature of data set [1]: Plasma protein binding in human assessed as free fraction. The format is ADME, cell-free.
The nature of data set [2]: Plasma protein binding in mouse assessed as free fraction. The format is ADME, cell-free.
The nature of data set [3]: AUClast in mouse blood at 15 mg/kg, po. Details: time 0 - last, dose 15 mg/kg, route po. The format is ADME, organism-based.
Data set [4] is described as follows: Clearance in mouse blood at 5 mg/kg, iv. The data set is classed as ADME, organism-based.
A short description of data set [5]: In vivo antagonist activity at TRL7 in C57BL/6 mouse assessed as inhibition of gardiquimod stimulated IL-6 production at 0.03 mg/kg,po for 30 minutes and followed by gardiquimod addition measured after 90 mins by ELISA analysis relative to control. The data set is classed as functional. More on the design: scale not given: the % may be the effect or the level left. The following applies: time 120 min, 2 h.

Data set [6] in a line: In vivo antagonist activity at TRL7 in C57BL/6 mouse assessed as inhibition of gardiquimod stimulated IL-6 production at 0.05 mg/kg,po for 30 minutes and followed by gardiquimod addition measured after 90 mins by ELISA analysis relative to control. The format is functional. More on the design: scale not given: the % may be the effect or the level left. To be noted: time 120 min, 2 h.

Data set [7] can be described thus: In vivo antagonist activity at TRL7 in C57BL/6 mouse assessed as inhibition of gardiquimod stimulated IL-6 production at […],po for 30 minutes and followed by gardiquimod addition measured after 90 mins by ELISA analysis relative to control. The format is functional. Details: scale not given: the % may be the effect or the level left. The following applies: time 120 min, 2 h.

Data set [8] in a line: In vivo antagonist activity at TRL7 in C57BL/6 mouse assessed as inhibition of gardiquimod stimulated IL-6 production at 0.5 mg/kg,po for 30 minutes and followed by gardiquimod addition measured after 90 mins by ELISA analysis relative to control. The data set is classed as functional. The following applies: time 120 min, 2 h. Details: scale not given: the % may be the effect or the level left.

Data set [9] is described as follows: In vivo antagonist activity at TRL9 in C57BL/6 mouse assessed as inhibition of ODN1585 stimulated IL-6 production at 10 mg/kg,po for 30 minutes and followed by ODN1585 addition measured after 90 mins by ELISA analysis relative to control. The data set is classed as functional. Details: scale not given: the % may be the effect or the level left. To be noted: time 120 min, 2 h.

The test system of data set [10] is Mus musculus. Briefly: Anti-inflammatory activity against MRL/Ipr Systemic lupus erythematosus mouse model assessed as inhibition of proteinuria at 5 mg/kg, po administered for 8 weeks and measured 24 hrs post final dose relative to control. The data set is classed as functional. More on the design: scale not given: the % may be the effect or the level left. To be noted: time 1368 hrs.

For data set [11], the system named is Mus musculus. Briefly: Anti-inflammatory activity against MRL/Ipr Systemic lupus erythematosus mouse model assessed as inhibition of urinary NGAL at 0.1 mg/kg, po administered for 8 weeks and measured 24 hrs post final dose relative to control. More on the design: scale not given: the % may be the effect or the level left. The format is functional. The following applies: time 1368 hrs.

In data set [12] the test system is Mus musculus. Briefly: Anti-inflammatory activity against MRL/Ipr Systemic lupus erythematosus mouse model assessed as inhibition of anti-Sm/RNP Ab titer at 20 mg/kg, po administered for 8 weeks and measured 24 hrs post final dose relative to control. The data set is classed as functional. Details: scale not given: the % may be the effect or the level left. The following applies: time 1368 hrs.

Data set [13] has as its system Mus musculus. Briefly: Anti-inflammatory activity against MRL/Ipr Systemic lupus erythematosus mouse model assessed as inhibition of anti-dsDNA Ab titer at 20 mg/kg, po administered for 8 weeks and measured 24 hrs post final dose relative to control. The format is functional. More on the design: scale not given: the % may be the effect or the level left. To be noted: time 1368 hrs.

Consider 1 molecule from ChEMBL document CHEMBL5131534, “Identification of 2-Pyridinylindole-Based Dual Antagonists of Toll-like Receptors 7 and 8 (TLR7/8)” (ACS Med Chem Lett, 2022).

Each structure is given as a SMILES string.

What is called IC50 is the point on the concentration scale where inhibition reaches its midpoint. As a reminder, the fraction unbound is the share of the substance not bound to proteins or other matrix. Usually AUC(0-t) stands for exposure summed from dosing to a finite time, without extrapolation to infinity. A word on the clearance: it is a measure of how efficiently the substance is removed, as volume per time. Consider `Cc1cc(-c2[nH]c3ccc(C4CCNCC4)cc3c2C(C)C)cc(C)n1`, for which the IC50 at Toll-like receptor 7 amounted to 1.4 nM. Besides, the figures for the fraction unbound in data set [1] and in [2] were 0.09 and 0.05, respectively. The molecule further had an exposure AUC(0-t) in data set [3] of 2770 nM·h. Moreover, the clearance in data set [4] came out at 8.76 L/h/kg. Besides, the Activity in [5] came to 28%; in data set [6], 66%; in data set [7] it was 83%; in data set [8] it was 98%; in data set [9], 33%; with Mus musculus [10], 92%. Besides, the Activity in the data set with Mus musculus [11] was 52%; in the data set with Mus musculus [12], 82%; in the data set with Mus musculus [13], 53%.
